{"source": "patent US20240018472A1", "about": "“ENHANCEMENT OF EXTRACELLULAR VESICLE PRODUCTION BY LYSOSOME INHIBITOR” (ExoTop Theragnostics Inc., priority 2022, published 2024)", "key": {"[1]": {"test_system": "SREBF-1 (sterol regulatory element-binding transcription factor-1)", "test": "qPCR of SREBF-1 gene expression in MSCs with or without CQ", "format": "cell-based", "settings": "both serum-free media and complete media, 48-hour culture", "protocol": "(§1) Mesenchymal stem cells (MSCs) were subjected to 48-hour culture in either complete media or serum-free media, followed by treatment with or without CQ to investigate alterations in cellular morphology. In addition, the gene expression levels of FASN (fatty acid synthase, a pivotal lipogenic enzyme) and SREBF-1(sterol regulatory element-binding transcription factor-1), two key factors involved in lipid metabolism, were assessed by qPCR."}, "CD63 [2]": {"test_system": "CD63", "test": "CD63 ELISA of cell-cultured media, MSC with or without CQ in three media", "format": "cell-based", "settings": "for CD63 levels (ELISA) vs corresponding medium without CQ: CQ 50 μM, 48 hours", "protocol": "(§2) Mesenchymal stem cells (MSC) were cultured in complete media until reaching 70% overall cell confluence, and then were further cultured in three different media with or without chloroquine (CQ) at 50 μM for 48 hours: complete media (normal culture media containing serum), αMEM (minimum essential media), and CDPF (chemically defined protein-free media). The cell-cultured media were collected, filtered through a 0.2 μm filter, and assessed by CD63 ELISA to quantify the amount of CD63, a protein marker associated with small-sized EVs (FIG. 5A).\n(§3) One-way ANOVA statistics were performed to analyze the data. In some cases, CD63 is a marker associated with small-sized EVs. In some cases, CD81 is a marker associated with EVs generally. P-value of greater than 0.05 was considered as not having a significant difference. *** indicates p≤0.001."}, "[3]": {"test_system": "fatty acid synthase (FASN)", "test": "qPCR RQ for fatty acid synthase (FASN) in MSCs in CCM or CDPF with or without lysosome inhibitor", "format": "cell-based", "method": "(§6) Mesenchymal stem cells were seeded on the plate at a density of ˜5000 cells/cm^2 and the plate was placed in a 5% CO2 humidified incubator. One day after the incubation, the culture media was aspirated to remove non-adherent cells and switched to a fresh media. The plate was incubated again. After further culturing for around 3 to 5 days, the culture media was aspirated and replaced by CDPF and/or lysosome inhibitor medium. The cells were cultured in the CDPF and/or lysosome inhibitor medium for 12, 24, or 48 hours. After the designated period of culturing, the culture media was collected and cell lysis buffer was immediately added to the cells on the plate. The collected media and cell lysate were each independently subjected to detection of the level of CD63 by ELISA and by qPCR, respectively.\n(§7) To quantitatively compare CD63+ expression in CM cultured in various media including CCM, CDPF, and CDPF with lysosome inhibitor, enzyme-linked immunosorbent (ELISA) assays were performed."}, "[4]": {"test_system": "TSG-6 (tumor necrosis factor-inducible gene 6 protein)", "test": "Protein expression of TSG-6, MSC with or without CQ", "format": "cell-based", "settings": "regardless of the culture condition; CQ 50 μM, 48 hours", "protocol": "(§4) Mesenchymal stem cells (MSC) were cultured in complete media until reaching 70% overall cell confluence, and then were further cultured in three different media with or without chloroquine (CQ) at 50 μM for 48 hours: complete media (normal culture media containing serum), αMEM (minimum essential media), and CDPF (chemically defined protein-free media). The cultured cells were analyzed for protein expression of TSG-6 (tumor necrosis factor-inducible gene 6 protein), Gal-3 (β-galactoside-binding lectin-3), and IDO and microRNA expression of miR-21 and miR-222. One-way ANOVA statistics were performed to analyze the data. P-value of greater than 0.05 was considered as not having a significant difference. *** indicates p≤0.001."}, "CD63 [5]": {"test_system": "CD63", "test": "CD63 ELISA of culture media, secretion of EVs (CD63+ particles) from stem cells", "format": "cell-based, human", "method": "as §6, §7"}, "CD63 [6]": {"test_system": "CD63", "test": "qPCR of CD63 gene expression in MSCs with or without CQ", "format": "cell-based", "settings": "CQ 50 μM, 48 hours; for gene expression of CD63 (in words): listed as CQ", "protocol": "as §2\n(§5) To further examine whether the upregulation of CD63 protein is a result of cytosolic secretion or heightened expression at the gene level, an analysis of alterations in the gene expression levels of extracellular vesicle-specific components in both complete and serum-free media was performed. The cultured cells were collected to perform qPCR analysis to detect three well-established EV markers: CD09, CD63, and CD81 (FIGS. 5B, 5C, and 5D).\nas §3"}, "miR-21": {"test_system": "miR-21", "test": "microRNA expression of miR-21, MSC with or without CQ", "format": "cell-based", "settings": "CQ 50 μM, 48 hours", "protocol": "as §4"}, "CD81": {"test_system": "CD81", "test": "qPCR of CD81 gene expression in MSCs with or without CQ", "format": "cell-based", "settings": "all media conditions (complete, αMEM, CDPF); CQ 50 μM, 48 hours; listed as CQ", "protocol": "as §2, §5, §3"}, "CD09": {"test_system": "CD09", "test": "qPCR of CD09 gene expression in MSCs with or without CQ", "format": "cell-based", "settings": "all media conditions; CQ 50 μM, 48 hours", "protocol": "as §2, §5, §3"}, "[7]": {"test_system": "FASN (fatty acid synthase)", "test": "qPCR of FASN gene expression in MSCs with or without CQ", "format": "cell-based", "settings": "both serum-free media and complete media, 48-hour culture", "protocol": "as §1"}, "IDO": {"test_system": "IDO", "test": "Protein expression of IDO, MSC with or without CQ", "format": "cell-based", "settings": "both αMEM media and CDPF media; CQ 50 μM, 48 hours", "protocol": "as §4"}, "[8]": {"test_system": "Mesenchymal stem cells (MSCs)", "test": "Cellular morphology of MSCs after 48-hour culture with or without CQ", "format": "cell-based", "settings": "CQ in serum-free media compared to complete media", "protocol": "as §1"}, "miR-222": {"test_system": "miR-222", "test": "microRNA expression of miR-222 (miR-22 in the source), MSC with or without CQ", "format": "cell-based", "settings": "CQ 50 μM, 48 hours", "protocol": "as §4"}, "[9]": {"test_system": "Gal-3 (β-galactoside-binding lectin-3)", "test": "Protein expression of Gal-3, MSC with or without CQ", "format": "cell-based", "settings": "both αMEM media and CDPF media; CQ 50 μM, 48 hours", "protocol": "as §4"}, "human MSCs": {"test_system": "human MSCs", "test": "Intracellular acidification of MSCs, lysotracker red staining of acidic organelles", "format": "cell-based", "settings": "MSCs cultured in CDPF with lysosome inhibitor vs CCM and CDPF", "protocol": "The plate was incubated again.\nHuman MSCs were cultured in different media including complete culture medium (CCM), CDPF, and CDPF with lysosome inhibitor. The acidic organelles in live stem cells were stained by lysotracker red."}, "[10]": {"settings": "CDPF with lysosome inhibitor vs CDPF, RT-qPCR"}, "[11]": {"settings": "complete media culture condition"}}, "note": "“Also recorded” adds a separate entry of the source.", "data": [{"smiles": "CCN(CC)CCCC(C)Nc1ccnc2cc(Cl)ccc12", "note": "(centres unmarked) [chloroquine]", "values": [{"measurement": "gene expression of SREBF-1 (in words)", "setting": "[1]", "value": "robust upregulation"}, {"measurement": "CD63 levels (ELISA) vs corresponding medium without CQ", "setting": "CD63 [2]; CDPF+CQ", "value": "higher"}, {"measurement": "CD63 levels (ELISA) vs corresponding medium without CQ", "setting": "CD63 [2]; complete medium+CQ", "value": "higher"}, {"measurement": "increase in EVs (CD63+) quantity resulting from CQ treatment, serum-free vs complete media", "setting": "CD63 [2]; serum-free media (αMEM and CDPF) compared to complete media", "value": "larger"}, {"measurement": "CD63 levels (ELISA) vs corresponding medium without CQ", "setting": "CD63 [2]; αMEM+CQ", "value": "higher"}, {"measurement": "expression of FASN, fold vs CCM", "setting": "[3]; CCM with lysosome inhibitor vs CCM, RT-qPCR", "value": "about 25 times"}, {"measurement": "expression of FASN, fold vs CDPF without lysosome inhibitor", "setting": "[3]; [10]", "value": "about 5 times"}, {"measurement": "gene expression of FASN (in words)", "setting": "[3]; treatment with lysosome inhibitor, qPCR RQ", "value": "drastically induced"}, {"measurement": "TSG-6 content levels (in words)", "setting": "[4]", "value": "did not stimulate an increase"}, {"measurement": "secretion of EVs (CD63+ particles) from stem cells to cultured medium (in words)", "setting": "CD63 [5]; CDPF with lysosome inhibitor vs CCM and CDPF", "value": "stimulated"}, {"measurement": "EV productions (CD63 ELISA), fold vs CCM or CDPF without lysosome inhibitor", "setting": "CD63 [5]; CDPF with lysosome inhibitor vs CCM or CDPF", "value": "about 2.3 times"}, {"measurement": "gene expression of CD63, fold vs corresponding medium without CQ", "setting": "CD63 [6]; CDPF+CQ vs CDPF", "value": "more than 2.5 times"}, {"measurement": "gene expression of CD63 (in words)", "setting": "CD63 [6]; complete media", "value": "no notable changes; also recorded: not seen"}, {"measurement": "gene expression of CD63 (in words)", "setting": "CD63 [6]; serum-free media (αMEM, CDPF), p≤0.001", "value": "significant upregulation; also recorded: large increase"}, {"measurement": "gene expression of CD63, fold vs corresponding medium without CQ", "setting": "CD63 [6]; αMEM+CQ vs αMEM", "value": "more than 2.5 times"}, {"measurement": "expression of miR-21 (in words)", "setting": "miR-21; [11]", "value": "did not induce an increase"}, {"measurement": "expression of miR-21 (in words)", "setting": "miR-21; serum-free conditions", "value": "increased"}, {"measurement": "CD81 gene expression (in words)", "setting": "CD81", "value": "did not increase significantly; also recorded: remained similar"}, {"measurement": "expression of hCD63+ gene, fold vs MSCs cultured in CCM", "setting": "human CD63 (hCD63) gene; CDPF with lysosome inhibitor vs CCM, RT-qPCR", "value": "about 10 times"}, {"measurement": "expression of hCD63+ gene, fold vs MSCs cultured in CDPF without lysosome inhibitor", "setting": "human CD63 (hCD63) gene; [10]", "value": "about 5 times"}, {"measurement": "CD63 gene expression in MSCs (in words)", "setting": "human CD63 (hCD63) gene; CDPF with lysosome inhibitor, qPCR", "value": "dramatic increase; also recorded: increased"}, {"measurement": "CD09 expression (in words)", "setting": "CD09", "value": "elevated"}, {"measurement": "gene expression of FASN (in words)", "setting": "[7]", "value": "robust upregulation"}, {"measurement": "expression level of IDO (in words)", "setting": "IDO", "value": "increased"}, {"measurement": "cellular morphology", "setting": "[8]", "value": "notable thinning of spindle-shaped cells and the emergence of numerous lipid body-like structures"}, {"measurement": "expression of miR-22 (in words)", "setting": "miR-222; [11]", "value": "did not induce an increase"}, {"measurement": "expression of miR-22 (in words)", "setting": "miR-222; serum-free conditions", "value": "increased"}, {"measurement": "expression level of Gal-3 (in words)", "setting": "[9]", "value": "increased"}, {"measurement": "intracellular acidification of human MSCs", "setting": "human MSCs", "value": "suppresses"}]}]}
